Read-outs that look alike come from different tables or passages of the source. Values belong to the molecule of their own block, whether it stands above or below them.
Biological target: T1, human APJ receptor (Homo sapiens, UniProt P35414)
T1 construct: expressed in transfected cells
T1 sequence (P35414 1-380): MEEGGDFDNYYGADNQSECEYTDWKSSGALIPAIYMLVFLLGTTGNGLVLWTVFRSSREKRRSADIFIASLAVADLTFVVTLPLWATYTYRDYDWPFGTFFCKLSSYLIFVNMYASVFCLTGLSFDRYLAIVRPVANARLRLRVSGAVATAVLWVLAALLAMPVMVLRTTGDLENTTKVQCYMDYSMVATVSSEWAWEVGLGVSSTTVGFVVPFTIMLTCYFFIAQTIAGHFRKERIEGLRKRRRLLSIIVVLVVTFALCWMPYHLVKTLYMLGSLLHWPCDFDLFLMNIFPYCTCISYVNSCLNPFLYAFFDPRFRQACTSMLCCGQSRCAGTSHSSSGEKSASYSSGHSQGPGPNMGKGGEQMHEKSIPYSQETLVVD
Test: Intracellular cAMP accumulation assay (APJ hcAMP, HTRF)
Type: cell-based
Details: HEK293 cells stably expressing human APJ, forskolin-stimulated cAMP, read-out: Human cAMP EC50
Outline: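 Inhibition of forskolin (2 μM)-stimulated cAMP, with […], was measured after 30 min compound exposure at room temperature in stably transfected HEK293 cells. HTRF ratios were converted to cAMP via standard curve, and EC50 values came from variable-slope sigmoidal concentration-response fitting.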

EC50 (Table 4): 0.01 to 10 nM
SMILES: CCOCc1nc(O)c(C(=O)N2CCN(Cc3cccc(F)c3F)CC2)c(O)c1-c1c(OC)cccc1OC [Example 114, 3-{4-[(2,3-difluorophenyl)methyl]piperazine-1-carbonyl}-5-(2,6-dimethoxyphenyl)-6-(ethoxymethyl)pyridine-2,4-diol]

EC50 (Table 4): 0.01 to 10 nM
SMILES: CCCCc1nc(O)c(C(=O)N2CC(OCc3cccc(F)c3F)C2)c(O)c1-c1c(OC)cccc1OC [Example 116, 6-butyl-3-{3-[(2,3-difluorophenyl)methoxy]azetidine-1-carbonyl}-5-(2,6-dimethoxyphenyl)pyridine-2,4-diol]

EC50 (Table 4): 100 to 300 nM
SMILES: CCCCc1nc(O)c(C(=O)N(CCC)CCc2ccccc2F)c(O)c1-c1c(OC)cccc1OC [Example 117, 6-butyl-5-(2,6-dimethoxyphenyl)-N-[2-(2-fluorophenyl)ethyl]-2,4-dihydroxy-N-propylpyridine-3-carboxamide]

EC50 (Table 4): 0.01 to 10 nM
SMILES: CCCCc1nc(O)c(C(=O)N2CCN(C(=O)c3cccc(F)c3F)CC2)c(O)c1-c1c(OC)cccc1OC [Example 119, 6-butyl-3-[4-(2,3-difluorobenzoyl)piperazine-1-carbonyl]-5-(2,6-dimethoxyphenyl)pyridine-2,4-diol]

EC50 (Table 4): 0.01 to 10 nM
SMILES: CCCCc1nc(O)c(C(=O)N2CCN(Cc3cc(F)ccc3F)CC2)c(O)c1-c1c(OC)cccc1OC [Example 122, 6-butyl-3-{4-[(2,5-difluorophenyl)methyl]piperazine-1-carbonyl}-5-(2,6-dimethoxyphenyl)pyridine-2,4-diol]

EC50 (Table 5): 0.01 to 10 nM
SMILES: CCOCc1nc(O)c(C(=O)N2CCC(c3cccc(F)c3)C2)c(O)c1-c1c(OC)cccc1OC (stereo not drawn) [Example 124, 5-(2,6-dimethoxyphenyl)-6-(ethoxymethyl)-3-[3-(3-fluorophenyl)pyrrolidine-1-carbonyl]pyridine-2,4-diol]

EC50 (Table 5): 10 to 100 nM
SMILES: COc1cccc(OC)c1-c1c(C2CCCC2)nc(O)c(C(=O)N2CCC(c3cccc(F)c3)C2)c1O (stereo not drawn) [Example 125, 6-cyclopentyl-5-(2,6-dimethoxyphenyl)-3-[3-(3-fluorophenyl)pyrrolidine-1-carbonyl]pyridine-2,4-diol]

EC50 (Table 5): 0.01 to 10 nM
SMILES: CCOCc1nc(O)c(C(=O)N2CCC(c3ccccc3F)C2)c(O)c1-c1c(OC)cccc1OC (stereo not drawn) [Example 126, 5-(2,6-dimethoxyphenyl)-6-(ethoxymethyl)-3-[3-(2-fluorophenyl)pyrrolidine-1-carbonyl]pyridine-2,4-diol]

EC50 (Table 5): 0.01 to 10 nM
SMILES: CCOCc1nc(O)c(C(=O)N2CCC(c3ccccc3F)C2)c(O)c1-c1c(OC)cccc1OC (stereo not drawn) [Example 127, 5-(2,6-dimethoxyphenyl)-6-(ethoxymethyl)-3-[3-(2-fluorophenyl)pyrrolidine-1-carbonyl]pyridine-2,4-diol]

EC50 (Table 5): 0.01 to 10 nM
SMILES: COc1cccc(-c2c(-c3csc(C)n3)nc(O)c(C(=O)N3CCC(c4ncc(F)cc4F)C3)c2O)c1 (stereo not drawn) [Example 129, 3-[3-(3,5-difluoropyridin-2-yl)pyrrolidine-1-carbonyl]-5-(3-methoxyphenyl)-6-(2-methyl-1,3-thiazol-4-yl)pyridine-2,4-diol]

EC50 (Table 6): 0.01 to 10 nM
SMILES: CCOCc1nc(O)c(C(=O)N2CCC(c3ccc(F)cc3F)C2)c(O)c1-c1c(OC)cccc1OC (stereo not drawn) [Example 132, 3-[3-(2,4-difluorophenyl)pyrrolidine-1-carbonyl]-5-(2,6-dimethoxyphenyl)-6-(ethoxymethyl)-4-hydroxy-1,2-dihydropyridin-2-one]

EC50 (Table 6): 10 to 100 nM
SMILES: CCOCc1nc(O)c(C(=O)N2CC[C@H](OCc3ccccc3)C2)c(O)c1-c1c(OC)cccc1OC [Example 137, 3-[(3S)-3-(benzyloxy)pyrrolidine-1-carbonyl]-5-(2,6-dimethoxyphenyl)-6-(ethoxymethyl)pyridine-2,4-diol]

EC50 (Table 7): 0.01 to 10 nM
SMILES: CCCCc1nc(O)c(C(=O)N2CCN(Cc3cccc(F)c3F)CC2)c(O)c1-c1cccc(CC#N)c1 [Example 139, 2-[3-(2-butyl-5-{4-[(2,3-difluorophenyl)methyl]piperazine-1-carbonyl}-4,6-dihydroxypyridin-3-yl)phenyl]acetonitrile]

EC50 (Table 7): 0.01 to 10 nM
SMILES: CCCCc1nc(O)c(C(=O)N2CCC(c3ncc(F)cc3F)C2)c(O)c1-c1cccc(C(C)C)c1 (stereo not drawn) [Example 140, 6-butyl-3-[3-(3,5-difluoropyridin-2-yl)pyrrolidine-1-carbonyl]-5-[3-(propan-2-yl)phenyl]pyridine-2,4-diol]

EC50 (Table 7): 0.01 to 10 nM
SMILES: CCCCc1nc(O)c(C(=O)N2CCC(c3ncc(F)cc3F)C2)c(O)c1-c1cccc(C(C)C)c1 (stereo not drawn) [Example 141, 6-butyl-3-[3-(3,5-difluoropyridin-2-yl)pyrrolidine-1-carbonyl]-5-[3-(propan-2-yl)phenyl]pyridine-2,4-diol]

EC50 (Table 7): 0.01 to 10 nM
SMILES: CCCCc1nc(O)c(C(=O)N2CCC(c3ncc(F)cc3F)C2)c(O)c1-c1cccc(OC)c1 (stereo not drawn) [Example 142, 6-butyl-3-[3-(3,5-difluoropyridin-2-yl)pyrrolidine-1-carbonyl]-5-(3-methoxyphenyl)pyridine-2,4-diol]

EC50 (Table 7): 0.01 to 10 nM
SMILES: CCCCc1nc(O)c(C(=O)N2CCC(c3ncc(F)cc3F)C2)c(O)c1-c1cccc(CO)c1 (stereo not drawn) [Example 144, 6-butyl-3-[3-(3,5-difluoropyridin-2-yl)pyrrolidine-1-carbonyl]-5-[3-(hydroxymethyl)phenyl]pyridine-2,4-diol]

Continued, molecule first:

SMILES: CCCCc1nc(O)c(C(=O)N2CCN(Cc3cccc(Cl)c3Cl)CC2)c(O)c1-c1cccc(OC)c1OC [Example 112, 6-butyl-3-{4-[(2,3-dichlorophenyl)methyl]piperazine-1-carbonyl}-5-(2,3-dimethoxyphenyl)pyridine-2,4-diol]
EC50 (Table 4): 0.01 to 10 nM

SMILES: CCCCc1nc(O)c(C(=O)N2CCC(Cc3cc(F)ccc3Br)CC2)c(O)c1-c1c(OC)cccc1OC [Example 113, 3-{4-[(2-bromo-5-fluorophenyl)methyl]piperidine-1-carbonyl}-6-butyl-5-(2,6-dimethoxyphenyl)pyridine-2,4-diol]
EC50 (Table 4): 0.01 to 10 nM

SMILES: CCCCc1nc(O)c(C(=O)N2CC(Oc3ncccc3F)C2)c(O)c1-c1c(OC)cccc1OC [Example 115, 6-butyl-5-(2,6-dimethoxyphenyl)-3-{3-[(3-fluoropyridin-2-yl)oxy]azetidine-1-carbonyl}pyridine-2,4-diol]
EC50 (Table 4): 0.01 to 10 nM

SMILES: CCCCc1nc(O)c(C(=O)N2CC(NS(=O)(=O)c3cccc(F)c3F)C2)c(O)c1-c1c(OC)cccc1OC [Example 118, N-{1-[6-butyl-5-(2,6-dimethoxyphenyl)-2,4-dihydroxypyridine-3-carbonyl]azetidin-3-yl}-2,3-difluorobenzene-1-sulfonamide]
EC50 (Table 4): 0.01 to 10 nM

SMILES: CCCCc1nc(O)c(C(=O)N2CCN(Cc3ncccc3F)CC2)c(O)c1-c1c(OC)cccc1OC [Example 120, 6-butyl-5-(2,6-dimethoxyphenyl)-3-{4-[(3-fluoropyridin-2-yl)methyl]piperazine-1-carbonyl}pyridine-2,4-diol]
EC50 (Table 4): 0.01 to 10 nM

SMILES: CCCCc1nc(O)c(C(=O)N2CCN(Cc3cccc(C)c3F)CC2)c(O)c1-c1c(OC)cccc1OC [Example 121, 6-butyl-5-(2,6-dimethoxyphenyl)-3-{4-[(2-fluoro-3-methylphenyl)methyl]piperazine-1-carbonyl}pyridine-2,4-diol]
EC50 (Table 4): 0.01 to 10 nM

SMILES: CCCCc1nc(O)c(C(=O)N2CCN(Cc3cccc(Cl)n3)CC2)c(O)c1-c1c(OC)cccc1OC [Example 123, 6-butyl-3-{4-[(6-chloropyridin-2-yl)methyl]piperazine-1-carbonyl}-5-(2,6-dimethoxyphenyl)pyridine-2,4-diol]
EC50 (Table 4): 0.01 to 10 nM

SMILES: COc1cccc(-c2c(-c3csc(C)n3)nc(O)c(C(=O)N3CCC(c4ncc(F)cc4F)C3)c2O)c1 (stereo not drawn) [Example 128, 3-[3-(3,5-difluoropyridin-2-yl)pyrrolidine-1-carbonyl]-5-(3-methoxyphenyl)-6-(2-methyl-1,3-thiazol-4-yl)pyridine-2,4-diol]
EC50 (Table 5): 10 to 100 nM

SMILES: CCOCc1nc(O)c(C(=O)N2CCC(c3ccc(F)cc3F)C2)c(O)c1-c1c(OC)cccc1OC (stereo not drawn) [Example 131]
EC50 (Table 6): 0.01 to 10 nM

SMILES: CCOCc1nc(O)c(C(=O)N2CCC(c3c(F)cccc3F)C2)c(O)c1-c1c(OC)cccc1OC (stereo not drawn) [Example 133, 3-[3-(2,6-difluorophenyl)pyrrolidine-1-carbonyl]-5-(2,6-dimethoxyphenyl)-6-(ethoxymethyl)-4-hydroxy-1,2-dihydropyridin-2-one]
EC50 (Table 6): 0.01 to 10 nM

SMILES: CCOCc1nc(O)c(C(=O)N2CCC(c3c(F)cccc3F)C2)c(O)c1-c1c(OC)cccc1OC (stereo not drawn) [Example 134, 3-[3-(2,6-difluorophenyl)pyrrolidine-1-carbonyl]-5-(2,6-dimethoxyphenyl)-6-(ethoxymethyl)-4-hydroxy-1,2-dihydropyridin-2-one]
EC50 (Table 6): 0.01 to 10 nM

SMILES: CCCCc1nc(O)c(C(=O)N2CC[C@H](OCc3ccccc3)C2)c(O)c1-c1c(OC)cccc1OC [Example 136, 3-[(3S)-3-(benzyloxy)pyrrolidine-1-carbonyl]-6-butyl-5-(2,6-dimethoxyphenyl)pyridine-2,4-diol]
EC50 (Table 6): 0.01 to 10 nM

SMILES: CCCCc1nc(O)c(C(=O)N2CCC(c3ncc(F)cc3F)C2)c(O)c1-c1cccc(OC)c1 (stereo not drawn) [Example 143, 6-butyl-3-[3-(3,5-difluoropyridin-2-yl)pyrrolidine-1-carbonyl]-5-(3-methoxyphenyl)pyridine-2,4-diol]
EC50 (Table 7): 0.01 to 10 nM
